Values after ≈ are worked out from the molar mass of the structure shown. Read-outs that look alike come from different tables or passages of the source. Bridge positions count the residues as written; N and C are the ends. Peptide text beside a SMILES is read from it.
What was measured:
E. faecalis (NCTC 12697) = assay: microbe, parasite or virus in culture; format: cell-based, Enterococcus faecalis; conditions: planktonic E. faecalis NCTC 12697; for MIC: 37 °C, nine repeats of three independent experiments; for MBC: lowest concentration killing 99.9% of inoculum
Text: The minimum inhibitory concentration (MIC) is the minimum concentration of an antimicrobial agent that prevents the visible growth of a bacterium or bacteria. The MIC is an important piece of data for research on new antimicrobial agents and helps in the effective selection of antibiotics to improve the success of treatment. The minimum bactericidal concentration (MBC) is defined as the lowest antibiotic concentration that kills 99.9% of the inoculum. This study mainly contained eight different microorganisms, which were Staphylococcus aureus (ATCC 6538), methicillin-resistant Staphylococcus aureus (NCTC 12493), Enterococcus faecalis (NCTC 12697), Escherichia coli (ATCC 8739), Klebsiella pneumoniae (ATCC 43816), Pseudomonas aeruginosa (ATCC CRM 9027), Acinetobacter baumannii (BAA 747), and Candida albicans (ATCC 10231). The bacteria were incubated in the compatible medium at 37 °C overnight.

[1] = test system: K. pneumoniae ATCC 43816 biofilm; format: cell-based, Klebsiella pneumoniae; conditions: for MBIC: lowest concentration inhibiting at least 90% of biofilm formation; for MBEC: minimum concentration eradicating at least 99% of the biofilm
Text: (§1) The minimum bactericidal concentration (MBC) is defined as the lowest antibiotic concentration that kills 99.9% of the inoculum. The minimum biofilm inhibitory concentration (MBIC) is the lowest concentration that inhibits at least 90% of the formation of biofilm. The minimum biofilm eradication concentration (MBEC) is the minimum concentration that can eradicate at least 99% of the biofilm. In addition to the eight microorganisms described previously, this experiment was also applied to P. aeruginosa (ATCC 27853, ATCC BAA-2108, P. aeruginosa 01, P. aeruginosa 14).

MRSA NCTC 12493 = conditions: checkerboard MIC, planktonic MRSA NCTC 12493, 37 °C, 24 h, OD 550 nm
Experimental: (§2) The bacteria were cultured, subcultured, diluted, and incubated as the methods of the MIC assay. The pure peptides and antibiotics were weighed and, respectively, dissolved in DMSO and dd water to make the final concentration of 2× MIC. […] Different concentrations of peptide and antibiotic solutions were added to a 96-well plate in the form of a checkerboard grid. The blank control and growth control were still 100 µL medium and 100 µL bacterial culture. The plate was incubated at 37 °C for 24 h. After that, the plate reader was used to monitor the absorbance of each well at 550 nm (The Synergy TM HT, BioTek, Winooski, VT, USA).
(§3) Parameter fractional inhibitory concentration indices (FICIs) were used to evaluate the synergistic effect, and the value of that was calculated as follows:FICI = FICa + FICb FICa = MIC combination peptide/MIC single peptide FICb = MIC combination antibiotic/MIC single antibiotic
(§4) The FICI value was interpreted as “synergy” (FICI ≤ 0.5), “no interaction” (0.5 < FICI ≤ 4), or “antagonism” (FICI > 4).

S. aureus ATCC 6538 = conditions: checkerboard MIC, planktonic S. aureus ATCC 6538, 37 °C, 24 h, OD 550 nm
Experimental: as §2, §3, §4

[2] = test system: P. aeruginosa ATCC CRM 9027; conditions: checkerboard MIC, planktonic P. aeruginosa ATCC CRM 9027, 37 °C, 24 h, OD 550 nm
Experimental: as §2, §3, §4

K. pneumoniae ATCC 43816 = conditions: checkerboard MIC, planktonic K. pneumoniae ATCC 43816, 37 °C, 24 h, OD 550 nm
Experimental: as §2, §3, §4

A. baumannii BAA 747 = conditions: checkerboard MIC, planktonic A. baumannii BAA 747, 37 °C, 24 h, OD 550 nm
Experimental: as §2, §3, §4

E. coli ATCC 8739 = conditions: checkerboard MIC, planktonic E. coli ATCC 8739, 37 °C, 24 h, OD 550 nm
Experimental: as §2, §3, §4

E. faecalis NCTC 12697 = conditions: checkerboard MIC, planktonic E. faecalis NCTC 12697, 37 °C, 24 h, OD 550 nm
Experimental: as §2, §3, §4

MRSA NCTC 12493 biofilm = format: cell-based, methicillin-resistant Staphylococcus aureus; conditions: for MBIC: lowest concentration inhibiting at least 90% of biofilm formation; for MBEC: minimum concentration eradicating at least 99% of the biofilm
Text: as §1

horse red blood cells = horse red blood cells in PBS, 37 °C, 2 h, absorbance 570 nm; positive control 0.1% Triton
Experimental: The pure peptide was dissolved in PBS and then two-fold diluted to obtain a series of concentrations: 512, 256, 128, 64, 32, 16, 8, 4, and 2 μM. A positive control (0.1% Triton) and blank control (PBS) were used. Two millilitres of fresh horse red blood cells were washed in PBS until the supernatant became colourless and clear, and the mixture was then thoroughly mixed. Each mixture contained 100 μL of peptide solution or controls and 100 μL of horse red blood cells, which were then incubated at 37 °C for 2 h and centrifuged at 930× g for 10 min. Subsequently, 100 μL of supernatant from each tube was transferred into a 96-well plate, and the plate reader measured the absorbance at a wavelength of 570 nm. The haemolysis rate was calculated using the following formula:Percentage Haemolysis= (ASample − ABlank)/(APositive − ABlank) × 100%

[3] = test system: E. faecalis NCTC 12697 biofilm; assay: Peptide and antibiotic co-administration MBIC checkerboard assay; format: cell-based, Enterococcus faecalis; conditions: 24 h, crystal violet, 595 nm
Text: The plate was then carefully cleaned under running water.

[4] = test system: S. aureus ATCC 6538 biofilm; format: cell-based, Staphylococcus aureus; conditions: for MBIC: lowest concentration inhibiting at least 90% of biofilm formation; for MBEC: minimum concentration eradicating at least 99% of the biofilm
Text: as §1

Yeast = assay: Geometric mean of MICs and TI value; format: cell-based, Candida albicans; conditions: C. albicans ATCC 10231
Experimental: The therapeutic potential of antimicrobial agents was valued based on their selectivity toward bacteria in reference to erythrocytes. The TI value was calculated from the results of antibacterial and haemolysis experiments of peptides using the following formula:TI value = HC10 / GMMICs.
GM was the geometric mean of MICs against all tested bacteria.

[5] = peptide combined with gentamicin
[6] = peptide combined with levofloxacin
[7] = peptide combined with vancomycin

Structure (SMILES) | MIC (E. faecalis (NCTC 12697)) [µM] | MBC (E. faecalis (NCTC 12697)) [µM] | MBIC [1] | MBEC [1] | FICI (MRSA NCTC 12493; peptide combined with cefepime) | FICI (MRSA NCTC 12493; [5]) | FICI (MRSA NCTC 12493; [6]) | FICI (MRSA NCTC 12493; [7]) | FICI (S. aureus ATCC 6538; peptide combined with cefepime) | FICI (S. aureus ATCC 6538; [5]) | FICI (S. aureus ATCC 6538; [6]) | FICI (S. aureus ATCC 6538; [7]) | FICI ([2]; peptide combined with cefepime) | FICI [2, 5] | FICI [2, 6] | FICI [2, 7] | FICI (K. pneumoniae ATCC 43816; peptide combined with cefepime) | FICI (K. pneumoniae ATCC 43816; [5]) | FICI (K. pneumoniae ATCC 43816; [6]) | FICI (K. pneumoniae ATCC 43816; [7]) | other results
CC[C@H](C)[C@H](NC(=O)[C@H](CCCCN)NC(=O)[C@H](CCCCN)NC(=O)CNC(=O)[C@H](C)NC(=O)CNC(=O)[C@H](CC(C)C)NC(=O)[C@@H](NC(=O)CNC(=O)[C@H](CO)NC(=O)[C@H](CC(C)C)NC(=O)[C@H](CC(C)C)NC(=O)CN)C(C)C)C(=O)N[C@H](C(=O)N[C@H]1CSSC[C@@H](C(=O)O)NC(=O)[C@H](CCCNC(=N)N)NC(=O)CNC(=O)[C@H](CO)NC(=O)[C@H](CC(C)C)NC(=O)CNC1=O)C(C)C [Nigrosin-6VL] (H-GLLSGVLGAGKKIVCGLSGRC-OH; disulfide 15-21) | > 128 | > 128 | >128/>128 µM | >128/>128 µM | 0.75 | 0.5 | 2 | 1 | 0.625 | 1.5 | 0.625 | 2.25 | 0.5 | 0.5 | 0.5 | >4 | 0.1875 | 0.1875 | 0.625 | 1.125 | FICI (A. baumannii BAA 747; peptide combined with cefepime): 1; FICI (A. baumannii BAA 747; [5]): 0.1875; FICI (A. baumannii BAA 747; [6]): >4; FICI (A. baumannii BAA 747; [7]): 1.25; FICI (E. coli ATCC 8739; peptide combined with cefepime): 0.375; FICI (E. coli ATCC 8739; [5]): 0.125; FICI (E. coli ATCC 8739; [6]): 0.375; FICI (E. coli ATCC 8739; [7]): 1.125; FICI (E. faecalis NCTC 12697; peptide combined with cefepime): 0.125; FICI (E. faecalis NCTC 12697; [5]): 0.625; FICI (E. faecalis NCTC 12697; [6]): 0.625; FICI (E. faecalis NCTC 12697; [7]): 0.625; MBIC (MRSA NCTC 12493 biofilm): >128/>128 µM; MBEC (MRSA NCTC 12493 biofilm): >128/>128 µM; HC10 (horse red blood cells): >256 µM; Biofilm FICI ([3]; peptide combined with cefepime): 0.5; Biofilm FICI [3, 5]: 0.5; MBIC [4]: 128/>128 µM; MBEC [4]: 128/>128 µM; GM (geometric mean of MICs), Yeast (Yeast): 128.00 µM
CC[C@H](C)[C@H](NC(=O)[C@H](CCCCN)NC(=O)[C@H](CCCCN)NC(=O)CNC(=O)[C@H](C)NC(=O)[C@H](CCCNC(=N)N)NC(=O)[C@H](CC(C)C)NC(=O)[C@@H](NC(=O)[C@H](C)NC(=O)[C@H](CCCNC(=N)N)NC(=O)[C@H](CC(C)C)NC(=O)[C@H](CC(C)C)NC(=O)CN)C(C)C)C(=O)N[C@H](C(=O)N[C@H]1CSSC[C@@H](C(=O)O)NC(=O)[C@H](CCCNC(=N)N)NC(=O)CNC(=O)[C@H](CO)NC(=O)[C@H](CC(C)C)NC(=O)CNC1=O)C(C)C [Peptide 2170-2R] (H-GLLRAVLRAGKKIVCGLSGRC-OH; disulfide 15-21) | 128 (≈ 278 µg/mL) | 128 (≈ 278 µg/mL) | 32 µM | > 128 µM | 0.75 | 0.375 | 1.125 | 0.625 | 1 | 1 | 0.625 | 0.625 | 0.5 | 0.5 | 0.625 | 1.125 | 0.1875 | 0.1562 | 1 | 1.125 | FICI (A. baumannii BAA 747; peptide combined with cefepime): 1.5; FICI (A. baumannii BAA 747; [5]): 0.25; FICI (A. baumannii BAA 747; [6]): >4; FICI (A. baumannii BAA 747; [7]): 0.625; FICI (E. coli ATCC 8739; peptide combined with cefepime): 0.5312; FICI (E. coli ATCC 8739; [5]): 0.125; FICI (E. coli ATCC 8739; [6]): 0.375; FICI (E. coli ATCC 8739; [7]): >4; FICI (E. faecalis NCTC 12697; peptide combined with cefepime): 0.1562; FICI (E. faecalis NCTC 12697; [5]): 0.625; FICI (E. faecalis NCTC 12697; [6]): 0.625; FICI (E. faecalis NCTC 12697; [7]): 0.625; MBIC (MRSA NCTC 12493 biofilm): 4 µM; MBEC (MRSA NCTC 12493 biofilm): 16 µM; HC10 (horse red blood cells): >256 µM; Biofilm FICI ([3]; peptide combined with cefepime): 0.375; MBIC [4]: 4 µM; MBEC [4]: 16 µM; GM (geometric mean of MICs), Yeast (Yeast): 64.00 µM
